Patent US20260116910A1, “POLYCYCLIC COMPOUNDS AND METHODS THEREOF” (HEPAITECH (BEIJING) BIOPHARMA TECHNOLOGY CO., LTD., priority 2021, published 2026)
Read-outs that look alike come from different tables or passages of the source.

Legend:
MRGPRX4 = MRGPRX4 (Homo sapiens, UniProt Q96LA9); experiment: MRGPRX4 activation, Fluo-8 Ca2+ FLIPR assay in HEK293T cells stably expressing MRGPRX4; format: cell-based; set-up: key to MRGPRX4 activation, Average / MRGPRX4 activation, Ave.: fluorescence change dF/F0; details: for EC50: MRGPRX4 activation, Ca2+ fluorescence, no activation in tested range reported as III, read-out: Activity (EC50 μM)
Sequence of MRGPRX4 (Q96LA9 whole entry): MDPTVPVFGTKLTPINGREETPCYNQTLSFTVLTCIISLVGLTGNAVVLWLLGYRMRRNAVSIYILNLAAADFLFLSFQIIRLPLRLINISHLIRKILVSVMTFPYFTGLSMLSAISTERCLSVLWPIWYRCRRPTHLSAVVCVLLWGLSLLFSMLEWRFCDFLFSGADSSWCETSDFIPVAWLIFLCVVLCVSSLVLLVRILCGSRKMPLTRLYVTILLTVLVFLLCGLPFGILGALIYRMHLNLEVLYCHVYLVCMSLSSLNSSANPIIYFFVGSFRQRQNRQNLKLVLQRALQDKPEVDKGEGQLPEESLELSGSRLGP
Summary of the method: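 Cells seeded overnight to >95% confluence, loaded 40-60 min at room temperature with 2 μM Fluo-8 AM, then kept in HHBS. Baseline read 30 s, compound added, signal followed 150 s more.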

human FXR (NR1H4) = target: T1, human FXR (NR1H4) (Homo sapiens, UniProt Q96RI1); experiment: Human FXR (NR1H4) agonist assessment, FXRE-NanoLuc reporter in HEK293T cells; format: cell-based; details: for EC50: read-out: EC50
T1 sequence (Q96RI1 1-476 isoform Q96RI1-1): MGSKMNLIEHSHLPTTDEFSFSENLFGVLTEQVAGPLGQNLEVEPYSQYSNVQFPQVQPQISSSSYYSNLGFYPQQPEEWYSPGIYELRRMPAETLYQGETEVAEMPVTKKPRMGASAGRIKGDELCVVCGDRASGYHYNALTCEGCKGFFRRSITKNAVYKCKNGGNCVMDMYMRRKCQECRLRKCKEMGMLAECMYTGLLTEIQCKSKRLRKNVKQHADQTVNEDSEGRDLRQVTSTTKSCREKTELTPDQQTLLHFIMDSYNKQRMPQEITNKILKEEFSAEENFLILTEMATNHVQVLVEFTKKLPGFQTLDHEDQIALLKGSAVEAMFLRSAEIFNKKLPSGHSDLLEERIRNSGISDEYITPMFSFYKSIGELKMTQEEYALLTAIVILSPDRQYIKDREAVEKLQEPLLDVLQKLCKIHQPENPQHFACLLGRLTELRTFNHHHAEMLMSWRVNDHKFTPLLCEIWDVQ
Summary of the method: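 HEK293T cells stably expressing human FXR with an FXRE-NanoLuc reporter were treated with compounds for 24 hr at 37 °C, with 0.01% DMSO as negative control. Medium was read for luminescence after 5 min with coelenterazine. EC50 was fitted by sigmoid to concentration-response data.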

[1] = FXR activation, HEK293T FXRE-NanoLuc reporter, 24 hr

| Structure (SMILES) | MRGPRX4 activation, fluorescence change (dF/F0), Average (MRGPRX4; Conc. (Log[M]) −4) | MRGPRX4 activation, fluorescence change (dF/F0), Average (MRGPRX4; Conc. (Log[M]) −4.5) | MRGPRX4 activation, fluorescence change (dF/F0), Average (MRGPRX4; Conc. (Log[M]) −5) | MRGPRX4 activation, fluorescence change (dF/F0), Average (MRGPRX4; Conc. (Log[M]) −5.5) | MRGPRX4 activation, fluorescence change (dF/F0), Average (MRGPRX4; Conc. (Log[M]) −6) | MRGPRX4 activation, fluorescence change (dF/F0), Average (MRGPRX4; Conc. (Log[M]) −7) | MRGPRX4 activation, fluorescence change (dF/F0), Average (MRGPRX4; Conc. (Log[M]) −8) | MRGPRX4 activation, fluorescence change (dF/F0), Average (MRGPRX4; Conc. (Log[M]) −9) | EC50 (MRGPRX4) [µM] | Efficacy (maximum measured induction of NanoLuc, normalized to CDCA set as 100%) (human FXR (NR1H4); [1]) | EC50 (human FXR (NR1H4); [1]) [µM] | MRGPRX4 activation, Average (MRGPRX4; E3-9, Conc. (Log[M]) −4.0) | MRGPRX4 activation, Average (MRGPRX4; E3-9, Conc. (Log[M]) −4.5) | MRGPRX4 activation, Average (MRGPRX4; E3-9, Conc. (Log[M]) −5.0) | MRGPRX4 activation, Average (MRGPRX4; E3-9, Conc. (Log[M]) −5.4) | MRGPRX4 activation, Average (MRGPRX4; E3-9, Conc. (Log[M]) −5.9) | MRGPRX4 activation, Average (MRGPRX4; E3-9, Conc. (Log[M]) −6.4) | MRGPRX4 activation, Average (MRGPRX4; E3-9, Conc. (Log[M]) −6.9) | MRGPRX4 activation, Average (MRGPRX4; E3-9, Conc. (Log[M]) −7.3) | MRGPRX4 activation, Average (MRGPRX4; E3-9, Conc. (Log[M]) −7.8) | other results |
| --- | --- | --- | --- | --- | --- | --- | --- | --- | --- | --- | --- | --- | --- | --- | --- | --- | --- | --- | --- | --- | --- |
| C[C@H](CCC(C)(C)O)[C@H]1CC[C@H]2[C@@H]3CC[C@@H]4CCCC[C@]4(C)[C@H]3CC[C@]12C [2-3] | 0.074 | 0.027 | −0.036 | −0.031 | −0.031 | −0.008 | −0.023 | −0.017 | > 100 | C (100%<efficacy <=300%) | 1 to 10 |  |  |  |  |  |  |  |  |  |  |
| CC[C@H]1[C@@H](O)[C@@H]2[C@H](CC[C@]3(C)[C@@H]([C@H](C)CCNS(=O)(=O)CC(C)C)CC[C@@H]23)[C@@]2(C)CCCC[C@@H]12 [6-4] |  |  |  |  |  |  |  |  | > 100 | C (100%<efficacy <=300%) | > 10 | 0.027 | 0.011 | 0.011 | 0.018 | 0.016 | 0.011 | 0.018 | 0.018 | 0.020 | MRGPRX4 activation, Average (MRGPRX4; E3-9, Conc. (Log[M]) −8.3): 0.018 |
| CC[C@H]1[C@@H](O)[C@@H]2[C@H](CC[C@]3(C)[C@@H]([C@H](C)CCCOS(=O)(=O)O)CC[C@@H]23)[C@@]2(C)CCCC[C@@H]12 [2-6] |  |  | −0.047 |  |  |  |  |  | 50 to 100 | B (300%<efficacy <=400%) | 1 to 10 |  |  |  |  |  |  |  |  |  |  |
| CC[C@H]1[C@@H](O)[C@@H]2[C@H](CC[C@]3(C)[C@@H]([C@H](C)CNC(=O)NS(=O)(=O)c4ccc5c(c4)CCC(C)(C)O5)CC[C@@H]23)[C@@]2(C)CCCC[C@@H]12 [20-2] |  |  |  |  |  |  |  |  | > 100 | B (300%<efficacy <=400%) | 1 to 10 | 0.025 | 0.012 | 0.021 | 0.019 | 0.025 |  |  |  |  |  |
| CC[C@H]1[C@@H](OC(=O)c2cccc(I)c2)[C@@H]2[C@H](CC[C@]3(C)C([C@H](C)CCC(=O)OC)=CC(=O)[C@@H]23)[C@@]2(C)CCCC[C@@H]12 [3-2] | 0.130 | 0.023 | −0.003 | −0.034 | 0.008 | −0.014 | −0.016 | −0.035 | > 100 | C (100%<efficacy <=300%) | > 10 |  |  |  |  |  |  |  |  |  |  |
| CC[C@H]1[C@@H](O)[C@H]2[C@@H]3CC[C@](C)([C@H](C)CCNC(=O)NS(=O)(=O)C[C@]45CCC(CC4=O)C5(C)C)[C@H]3CC[C@@H]2[C@@]2(C)CC[C@H](F)C[C@@H]12 [9-5] |  |  |  |  |  |  |  |  | > 100 |  | < 1 | 0.014 | 0.016 | 0.023 | 0.023 | 0.018 | 0.019 | 0.021 | 0.019 | 0.021 | MRGPRX4 activation, Average (MRGPRX4; E3-9, Conc. (Log[M]) −8.3): 0.021; Efficacy (maximum measured induction of NanoLuc, normalized to CDCA set as 100%) (human FXR (NR1H4)): C (key: A: efficacy >400%; B: 300%<efficacy <=400%; C: 100%<efficacy <=300%; D: efficacy <=100%) |
